pKi: −log10 of the molar value.

The first test has as its target T1, STAT6 protein (Homo sapiens, UniProt P42226).
T1 sequence (P42226 1-847): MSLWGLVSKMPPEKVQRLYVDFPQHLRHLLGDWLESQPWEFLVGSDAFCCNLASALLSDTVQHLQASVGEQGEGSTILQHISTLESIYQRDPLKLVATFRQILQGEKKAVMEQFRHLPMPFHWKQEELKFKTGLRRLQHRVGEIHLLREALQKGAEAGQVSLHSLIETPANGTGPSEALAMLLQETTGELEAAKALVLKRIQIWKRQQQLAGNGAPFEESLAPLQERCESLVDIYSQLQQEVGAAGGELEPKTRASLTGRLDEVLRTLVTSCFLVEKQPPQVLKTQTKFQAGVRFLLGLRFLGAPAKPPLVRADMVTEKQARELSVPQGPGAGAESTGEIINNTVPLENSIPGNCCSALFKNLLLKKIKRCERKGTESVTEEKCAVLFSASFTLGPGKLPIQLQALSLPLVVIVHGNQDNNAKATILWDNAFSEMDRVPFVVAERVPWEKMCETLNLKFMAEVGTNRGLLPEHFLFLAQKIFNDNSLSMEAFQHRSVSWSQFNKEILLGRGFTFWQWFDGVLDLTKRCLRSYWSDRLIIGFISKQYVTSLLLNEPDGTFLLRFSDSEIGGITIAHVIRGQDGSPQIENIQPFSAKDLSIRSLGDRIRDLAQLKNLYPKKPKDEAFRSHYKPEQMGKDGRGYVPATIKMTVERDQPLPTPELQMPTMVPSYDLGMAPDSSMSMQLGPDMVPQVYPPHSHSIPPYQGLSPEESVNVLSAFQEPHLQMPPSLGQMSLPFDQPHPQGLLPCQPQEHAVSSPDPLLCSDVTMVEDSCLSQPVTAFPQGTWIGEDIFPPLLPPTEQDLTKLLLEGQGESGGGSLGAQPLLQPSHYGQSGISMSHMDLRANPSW
As to the kind of experiment: Fluorescence polarization (FP) binding assay, STAT6.
Conditions: not given
The procedure, abridged:
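5 nM fluorescein tracer + 200 nM STAT protein; PBS pH 7.4, 0.01% BGG, 0.01% Tween-20, 2 mM DTT; shake 15 min, 1 h RT equilibrium; FP read; nonlinear fit for inhibition constants.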
On the technique in general: Polarisation of emitted light reports the rotation of a fluorescent probe.
`CCOP(=O)(O)C(F)(F)c1ccc2sc(C(=O)N[C@H]3CN(C(C)=O)CC[C@H]4CC[C@@H](C(=O)N5CCC6(CCCCCC6)C5)N4C3=O)cc2c1` [Compound 384, ethyl hydrogen ((2-(((5S,85,10aR)-3-acetyl-6-oxo-8-(2-azaspiro[4.6]undecane-2-carbonyl)decahydropyrrolo[1,2-a][1,5]diazocin-5-yl)carbamoyl)benzo[b]thiophen-5-yl)difluoromethyl)phosphonate] gave a pKi of under 5.00.

Still in this test, the particulars now being: FP competition, 5 nM fluorescein-labeled tracer, 200 nM protein, PBS pH7.4; read-out: Binding STAT6.
For the molecule `CC(=O)N1CC[C@H]2CC[C@@H](C(=O)N3CCCOCC3)N2C(=O)[C@@H](NC(=O)c2cc3cc(C(F)(F)P(=O)(O)O)ccc3[nH]2)C1` [Compound 368, ((2-(((5S,8S,10aR)-3-acetyl-8-(1,4-oxazepane-4-carbonyl)-6-oxodecahydropyrrolo[1,2-a][1,5]diazocin-5-yl)carbamoyl)-1H-indol-5-yl)difluoromethyl)phosphonic acid], the pKi was under 5.00.
Same read-out and setting: the result for `CC(=O)N1CC[C@H]2CC[C@@H](C(=O)N3CCCc4ccccc4C3)N2C(=O)[C@@H](NC(=O)c2cc3cc(C(F)(F)P(=O)(O)O)ccc3[nH]2)C1` [Compound 369, ((2-(((5S,8S,10aR)-3-acetyl-6-oxo-8-(2,3,4,5-tetrahydro-1H-benzo[c]azepine-2-carbonyl)decahydropyrrolo[1,2-a][1,5]diazocin-5-yl)carbamoyl)-1H-indol-5-yl)difluoromethyl)phosphonic acid] reads under 5.00; that for `CC(=O)N1CC[C@H]2CC[C@@H](C(=O)N(c3ccccc3)c3ccc(Br)cc3)N2C(=O)[C@@H](NC(=O)c2cc3cc(C(F)(F)P(=O)(O)O)ccc3[nH]2)C1` [Compound 370, ((2-(((5S,8S,10aR)-3-acetyl-8-((4-bromophenyl)(phenyl)carbamoyl)-6-oxodecahydropyrrolo[1,2-a][1,5]diazocin-5-yl)carbamoyl)-1H-indol-5-yl)difluoromethyl)phosphonic acid], 5.00 to 6.00.
Still for that read-out and setting: the same measure for `CC(=O)N1CC[C@H]2CC[C@@H](C(=O)N(c3ccc(Cl)cc3)C3CCCCC3)N2C(=O)[C@@H](NC(=O)c2cc3cc(C(F)(F)P(=O)(O)O)ccc3[nH]2)C1` [Compound 371, ((2-(((5S,8S,10aR)-3-acetyl-8-((4-chlorophenyl)(cyclohexyl)carbamoyl)-6-oxodecahydropyrrolo[1,2-a][1,5]diazocin-5-yl)carbamoyl)-1H-indol-5-yl)difluoromethyl)phosphonic acid]: under 5.00.
On the same count and under the same terms, the result for `CC(=O)N1CC[C@H]2CC[C@@H](C(=O)N3CCOc4ccccc43)N2C(=O)[C@@H](NC(=O)c2cc3cc(C(F)(F)P(=O)(O)O)ccc3[nH]2)C1` [Compound 372, ((2-(((5S,8S,10aR)-3-acetyl-8-(3,4-dihydro-2H-benzo[b][1,4]oxazine-4-carbonyl)-6-oxodecahydropyrrolo[1,2-a][1,5]diazocin-5-yl)carbamoyl)-1H-indol-5-yl)difluoromethyl)phosphonic acid] reads under 5.00; that for `CC(=O)N1CC[C@H]2CC[C@@H](C(=O)N3CCc4cc(I)ccc4C3)N2C(=O)[C@@H](NC(=O)c2cc3cc(C(F)(F)P(=O)(O)O)ccc3[nH]2)C1` [Compound 373, ((2-(((5S,8S,10aR)-3-acetyl-8-(6-iodo-1,2,3,4-tetrahydroisoquinoline-2-carbonyl)-6-oxodecahydropyrrolo[1,2-a][1,5]diazocin-5-yl)carbamoyl)-1H-indol-5-yl)difluoromethyl)phosphonic acid], 5.00 to 6.00; that for `CC(=O)N1CC[C@H]2CC[C@@H](C(=O)N3CCc4ccccc4CC3)N2C(=O)[C@@H](NC(=O)c2cc3cc(C(F)(F)P(=O)(O)O)ccc3[nH]2)C1` [Compound 374, ((2-(((5S,8S,10aR)-3-acetyl-6-oxo-8-(2,3,4,5-tetrahydro-1H-benzo[d]azepine-3-carbonyl)decahydropyrrolo[1,2-a][1,5]diazocin-5-yl)carbamoyl)-1H-indol-5-yl)difluoromethyl)phosphonic acid], under 5.00.
Take `CC(=O)N1CC[C@H]2CC[C@@H](C(=O)N(C)c3ccc(Cl)cc3)N2C(=O)[C@@H](NC(=O)c2cc3cc(C(F)(F)P(=O)(O)O)ccc3[nH]2)C1` [Compound 375, ((2-(((5S,8S,10aR)-3-acetyl-8-((4-chlorophenyl)(methyl)carbamoyl)-6-oxodecahydropyrrolo[1,2-a][1,5]diazocin-5-yl)carbamoyl)-1H-indol-5-yl)difluoromethyl)phosphonic acid]: the pKi was under 5.00.
Same read-out and setting: the same measure for `CC(=O)N1CC[C@H]2CC[C@@H](C(=O)N(C)c3ccc(F)cc3)N2C(=O)[C@@H](NC(=O)c2cc3cc(C(F)(F)P(=O)(O)O)ccc3[nH]2)C1` [Compound 376, ((2-(((5S,8S,10aR)-3-acetyl-8-((4-fluorophenyl)(methyl)carbamoyl)-6-oxodecahydropyrrolo[1,2-a][1,5]diazocin-5-yl)carbamoyl)-1H-indol-5-yl)difluoromethyl)phosphonic acid]: under 5.00.
The same measure, in the same setting: the result for `CC(=O)N1CC[C@H]2CC[C@@H](C(=O)N3Cc4ccc(Cl)cc4C3)N2C(=O)[C@@H](NC(=O)c2cc3cc(C(F)(F)P(=O)(O)O)ccc3[nH]2)C1` [Compound 377, ((2-(((5,8S,10aR)-3-acetyl-8-(5-chloroisoindoline-2-carbonyl)-6-oxodecahydropyrrolo[1,2-a][1,5]diazocin-5-yl)carbamoyl)-1H-indol-5-yl)difluoromethyl)phosphonic acid] reads under 5.00.
The same measure, in the same setting: the result for `CC(=O)N1CC[C@H]2CC[C@@H](C(=O)N3Cc4cccc(Cl)c4C3)N2C(=O)[C@@H](NC(=O)c2cc3cc(C(F)(F)P(=O)(O)O)ccc3[nH]2)C1` [Compound 378, ((2-(((5S,8S,10aR)-3-acetyl-8-(4-chloroisoindoline-2-carbonyl)-6-oxodecahydropyrrolo[1,2-a][1,5]diazocin-5-yl)carbamoyl)-1H-indol-5-yl)difluoromethyl)phosphonic acid] reads under 5.00; that for `CN(C(=O)[C@@H]1CC[C@@H]2CCC[C@H](NC(=O)c3cc4cc(C(F)(F)P(=O)(O)O)ccc4s3)C(=O)N21)c1ccc(Cl)cc1` [Compound 379, ((2-(((3S,6S,9aS)-3-((4-chlorophenyl)(methyl)carbamoyl)-5-oxooctahydro-1H-pyrrolo[1,2-a]azepin-6-yl)carbamoyl)benzo[b]thiophen-5-yl)difluoromethyl)phosphonic acid], under 5.00.
Turning to `CN(C(=O)[C@@H]1CC[C@H]2CCC[C@H](NC(=O)c3cc4cc(C(F)(F)P(=O)(O)O)ccc4s3)C(=O)N21)c1ccc(Cl)cc1` [Compound 380, ((2-(((3S,65,9aR)-3-((4-chlorophenyl)(methyl)carbamoyl)-5-oxooctahydro-1H-pyrrolo[1,2-a]azepin-6-yl)carbamoyl)benzo[b]thiophen-5-yl)difluoromethyl)phosphonic acid], the pKi was under 5.00.
Turning to `CC(=O)N1CC[C@H]2CC[C@@H](C(=O)N3CCCCC3)N2C(=O)[C@@H](NC(=O)c2cc3cc(C(F)(F)P(=O)(O)O)ccc3s2)C1` [Compound 381, ((2-(((5S,8S,10aR)-3-acetyl-6-oxo-8-(piperidine-1-carbonyl)decahydropyrrolo[1,2-a][1,5]diazocin-5-yl)carbamoyl)benzo[b]thiophen-5-yl)difluoromethyl)phosphonic acid], the pKi was under 5.00.
Same read-out and setting: the same measure for `CC(=O)N1CC[C@H]2CC[C@@H](C(=O)N3CCC4(CCCC4)C3)N2C(=O)[C@@H](NC(=O)c2cc3cc(C(F)(F)P(=O)(O)O)ccc3s2)C1` [Compound 382, ((2-(((5S,8S,10aR)-3-acetyl-6-oxo-8-(2-azaspiro[4.4]nonane-2-carbonyl)decahydropyrrolo[1,2-a][1,5]diazocin-5-yl)carbamoyl)benzo[b]thiophen-5-yl)difluoromethyl)phosphonic acid]: under 5.00.
With `CC(=O)N1CC[C@H]2CC[C@@H](C(=O)N3CCC4(CCCCC4)C3)N2C(=O)[C@@H](NC(=O)c2cc3cc(C(F)(F)P(=O)(O)O)ccc3s2)C1` [Compound 383, ((2-(((5,8S,10aR)-3-acetyl-6-oxo-8-(2-azaspiro[4.5]decane-2-carbonyl)decahydropyrrolo[1,2-a][1,5]diazocin-5-yl)carbamoyl)benzo[b]thiophen-5-yl)difluoromethyl)phosphonic acid], the pKi was under 5.00.
For the molecule `CC(=O)N1CC[C@H]2CC[C@@H](C(=O)N3CCC4(CCCCCC4)C3)N2C(=O)[C@@H](NC(=O)c2cc3cc(C(F)(F)P(=O)(O)O)ccc3s2)C1` [Compound 385, ((2-(((5S,8S,10aR)-3-acetyl-6-oxo-8-(2-azaspiro[4.6]undecane-2-carbonyl)decahydropyrrolo[1,2-a][1,5]diazocin-5-yl)carbamoyl)benzo[b]thiophen-5-yl)difluoromethyl)phosphonic acid], the pKi is under 5.00.

Source of the values: patent US20230295200A1 (REGENTS OF THE UNIVERSITY OF MICHIGAN, priority 2022, published 2023).
